Read-outs that look alike come from different tables or passages of the source. Starred links: 1 amine or outer side, 2 acyl side, 3 side chain; linkers in the order of their positions; H or OH if unused. Positions of bridges follow the written chain, without caps; N, C: chain ends. Non-standard residues stand in square brackets, D forms with d. Residues, ends and D or L forms follow the SMILES beside them. Chains are numbered I, II in the order given. Actinocin(9to1) = Cc1c2oc3c(C)ccc(C(=O)[*:1])c3nc-2c(C(=O)[*:2])c(N)c1=O; NMeV = CN[C@H](C(=O)O)C(C)C; Sar = CNCC(=O)O
Key:
MCF-7 adrr cell line [1] = tested on: MCF-7 adrr cell line; set-up: method as in Foster et al., 1988; settings: ref Foster et al., 1988; cited from earlier work
CHO-KI cell line [2] = tested on: CHO-KI cell line; set-up: method as in Chatterjee et al., 1990b; settings: parental CHO-KI line; ref Chatterjee et al., 1990b; cited from earlier work
MCF-7 adrr cell line [3] = assay: cells
Description: (§1) Br. J. Cancer (1992), 66, 833-839 ? […] Clinical effects and in vitro assessment in p-glycoprotein expressing cell lines N.S.A. Stuart', P. Philip', A.L. Harris', K. Tonkin', S. Houlbrook2, J. Kirk2, E.A. Lien3 & J. Carmichael' 'ICRF Clinical Oncology Unit, Churchill Hospital, Oxford OX3 7LJ; 2MRC Radiobiology Unit, Chilton, Didcot, Oxon; 3Department of Pharmacology and Toxicology, University of Bergen, Bergen, Norway. […] Cytotoxic drug resistance frequently affects a wide range of cytotoxic agents. It is commonly inherent, although it may also be acquired after initial response to cytotoxic drugs. Cell lines exposed in vitro to one cytotoxic drug may also become resistant to a range of structurally and functionally diverse agents. This multidrug resistant (MDR) phenotype is associ- ated with the presence of a 170 kd membrane glycoprotein, the P-glycoprotein (Pgp) (Juliano et al., 1976; Kartner et al., 1983; Riordan et al., 1985) which acts as an energy depen- dent efflux pump (Skovsgaard, 1978). […] Unfor- tunately many cause unacceptable toxicity at levels below those needed to modulate resistance and have therefore not been useful clinically (Ozols et al., 1987). Some encouraging results have however been reported in lymphoid malignan- cies. […] It is widely used in the treatment of breast cancer at doses of 20-40mgday-' and at such doses produces serum levels around 0.5 JiM (Adam et al., 1980; Fabian et al., 1980; Lien et al., 1989). […] Etoposide (VP16-213, Vepesid) is an epipodophyllotoxin derived cytotoxic drug which interferes with the action of the nuclear enzyme topoisomerase II producing lethal single and double stranded DNA breaks (Chen et al., 1984). It has activity in a number of solid tumours and resistance to it is part of the typical MDR phenotype (Endicott et al., 1989). […] The study therefore included patients with a range of relapsed and chemoresistant tumours. […] Patients had ECOG performance scores of 2 or better, had normal renal and hepatic function and had normal peripheral blood counts. […] Correspondence: N.S. Stuart. Received 13 March 1992; and in revised form 8 July 1992. 'PI Macmillan Press Ltd., 1992 Br. J. Cancer (1992), 66, 833-839 834 N.S.A. STUART et al. No formal compliance check was conducted but patients were asked specifically whether they had difficulties taking the correct number of tablets. Oral etoposide was given at a dose of 300mgday-' (150mg two times day-') for the first course. Patients who remained myelosuppressed on day 21 had the dose of etoposide reduced to 200 mg day-' for subse- quent courses. In those who had no significant myelosuppres- sion the dose of etoposide was increased to 400 mg day-'. […] Blood samples were centrifuged and the serum removed and stored at -20?C prior to measurement. […] The methods used have been published previously (Lien et al., 1989; 1987). […] The drugs were detected by being converted to fluorophors by subjecting the effluent of the column to ultra-violet light while passing through a quartz tube. The identity of the analyses was confirmed by liquid chromatography/mass spec- trometry using an on-line mass spectrometer connected to the analytical column (Lien et al., 1988). Serum levels in different patient populations were compared using the Mann-Whitney U-test. Cells and culture conditions Three pairs of cell lines were assessed. Each comprised a wild-type parental cell line and a P-glycoprotein expressing daughter line. The wild-type MCF-7 cell line was derived from a human breast cancer (Soule et al., 1973) while the CHO-KI cell line was derived from Chinese hamster ovaries (CHO).

MCF-7 wt cell line = assay: cells
Description: as §1

S1 cell line (SW-1573) = assay: cells; settings: for Enhancement: S1, IC50 etoposide alone divided by IC50 with MNTC tamoxifen
Description: as §1

[4] = tested on: P388/ADR murine leukaemia line; set-up: method as in Ramu et al., 1984; settings: ref Ramu et al., 1984; cited from earlier work
[5] = cited from earlier work
CHO-KI cell line [6] = settings: IC50 etoposide alone divided by IC50 with MNTC tamoxifen
Description: as §1

S1/1.1 cell line = settings: for Enhancement: S1/1.1, IC50 etoposide alone divided by IC50 with MNTC tamoxifen
Description: as §1

[7] = Description: as §1
CHO-KI adrr cell line [8] = settings: for Enhancement: CHO-KI adrr, IC50 etoposide alone divided by IC50 with MNTC tamoxifen
Description: as §1

CHO-KI adrr cell line [9] = tested on: CHO-KI adrr cell line; set-up: method as in Chatterjee et al., 1990b; settings: dox resistant CHO-KI adrr line; ref Chatterjee et al., 1990b; cited from earlier work
[10] = tested on: multidrug resistance in vitro; set-up: method as in earlier work; settings: ref Chatterjee et al., 1990b; Foster et al., 1988; Ramu et al., 1984; cited from earlier work
human BRO melanoma cells = tested on: human BRO melanoma cells; set-up: method as in Lincke et al., 1990; settings: parental BRO cell line; ref Lincke et al., 1990; read-out: IC50 for etoposide; cited from earlier work
[11] = tested on: drug resistant variant of the Ridgway osteogenic sarcoma; set-up: method as in Merry et al., 1991; settings: in vivo model; ref Merry et al., 1991; cited from earlier work
[12] = tested on: Chinese hamster lung (DC3F/ADX) and breast cancer (MCF-7 adrr) cell lines; set-up: method as in Politi et al., 1990; settings: multidrug resistant mutants; ref Politi et al., 1990; cited from earlier work
[13] = Homo sapiens, MCF7, 96 h, read-out: IC50 etoposide

## CC/C(=C(\c1ccccc1)c1ccc(OCCN(C)C)cc1)c1ccccc1 [tamoxifen]
MCF-7 adrr cell line [1]
  Reversal of adriamycin and vinblastine resistance: partial reversal
CHO-KI cell line [2]
  Enhancement of dox cytotoxicity: 4.8 fold
MCF-7 adrr cell line [3]; MCF-7 adrr, IC50 etoposide alone divided by IC50 with MNTC tamoxifen
  Enhancement: 0.7
MCF-7 wt cell line; MCF-7 wt, IC50 etoposide alone divided by IC50 with MNTC tamoxifen
  Enhancement: 1.2
S1 cell line (SW-1573)
  Enhancement: 0.9
S1 cell line (SW-1573); listed as Tamoxifen
  Enhancement: no significant effect
[4]
  Reversal of adriamycin resistance: partially reversed the resistance
[5]; after 9 days on 260 mg of tamoxifen twice a day, ref Trump et al., 1991
  Serum levels: 6.1 µM
[5]; continuing tamoxifen 480 mg day-1 indefinitely, ref Stuart et al., 1991
  Serum levels: around 4 microM
[5]; standard dose tamoxifen 20-40 mg day-1, after 4 weeks, ref Adam et al., 1980, Fabian et al., 1980, Lien et al., 1989
  Steady state serum levels: 0.25 to 1.0 µM
[5]; tamoxifen 160 mg three times a day, after 10 days, ref Stuart et al., 1991
  Serum levels, plateau: around 4 microM
[5]; tamoxifen doses of 20-40 mg day-1 in breast cancer, ref Adam et al., 1980, Fabian et al., Lien et al., 1989
  Serum levels: around 0.5 microM
CHO-KI cell line [6]
  Enhancement: 1.0
CHO-KI cell line [6]; listed as Tamoxifen
  Enhancement: no significant effect
S1/1.1 cell line
  Enhancement: 0.9
S1/1.1 cell line; listed as Tamoxifen
  Enhancement: no significant effect
[7]; tamoxifen 480 mg day-1, total 10 patients
  Neurological symptoms: Severe/v. severe (number of patients): 0
[7]; tamoxifen 720 mg day-1, total 16 patients
  Neurological symptoms: Severe/v. severe (number of patients): 1 (6%)
CHO-KI adrr cell line [8]
  Enhancement: 0.85
CHO-KI adrr cell line [8]; listed as Tamoxifen
  Enhancement: no significant effect
CHO-KI adrr cell line [9]
  Enhancement of dox cytotoxicity: 16 fold
[10]
  Levels sufficient to modulate multidrug resistance in vitro: 3-10 JAM

## COc1cc([C@@H]2c3cc4c(cc3[C@@H](O[C@@H]3O[C@@H]5CO[C@@H](C)O[C@H]5[C@H](O)[C@H]3O)[C@H]3COC(=O)[C@H]23)OCO4)cc(OC)c1O [etoposide]
MCF-7 adrr cell line [3]; [13]
  IC50: 60000 nM
MCF-7 adrr cell line [3]; MCF-7 adrr versus MCF-7 wt
  Resistance to etoposide in comparison to the MCF-7 wild type cell line: 60 fold
MCF-7 wt cell line; [13]
  IC50: 950 nM
S1 cell line (SW-1573); Homo sapiens, SW1573, 96 h, read-out: IC50 etoposide
  IC50: 3000 nM
Human BRO melanoma cells
  IC50: 16 nM
[11]
  Resistance of the drug resistant variant: 5 fold
S1/1.1 cell line; S1/1.1 versus S1, P<0.01
  More sensitive than the parental line: 2 fold
[7]; human, in vivo, po
  Thrombocytopenia: No significant thrombocytopenia
CHO-KI adrr cell line [8]; CHO-KI adrr versus CHO-KI
  More resistant than its parental line: 5 fold

## CC/C(=C(\c1ccccc1)c1ccc(OCCN)cc1)c1ccccc1 [didesmethyltamoxifen]
[5]; in vivo
  Levels lower than those of the parent compound: 60-85%

## CC[C@]1(O)C[C@H]2CN(CCc3c([nH]c4ccccc34)[C@@](C(=O)OC)(c3cc4c(cc3OC)N(C=O)[C@H]3[C@@](O)(C(=O)OC)[C@H](OC(C)=O)[C@]5(CC)C=CCN6CC[C@]43[C@@H]65)C2)C1 [vincristine]
[11]
  Resistance of the drug resistant variant: 3.5 fold

## COc1ccc(CCN(C)CCCC(C#N)(c2ccc(OC)c(OC)c2)C(C)C)cc1OC (stereo not drawn) [verapamil]
[12]
  Effect on etoposide resistance: 3-4 fold
  Enhancement (reversal of resistance to vincristine): 11-125 fold

## Cc1c2oc3c(C)ccc(C(=O)N[C@@H]4C(=O)N[C@H](C(C)C)C(=O)N5CCC[C@H]5C(=O)N(C)CC(=O)N(C)[C@@H](C(C)C)C(=O)O[C@@H]4C)c3nc-2c(C(=O)N[C@@H]2C(=O)N[C@H](C(C)C)C(=O)N3CCC[C@H]3C(=O)N(C)CC(=O)N(C)[C@@H](C(C)C)C(=O)O[C@@H]2C)c(N)c1=O [actinomycin- D, actinomycin-D] (I: T[dV]P[Sar][NMeV] / II: T[dV]P[Sar][NMeV]; ester I:1-I:C, II:1-II:C; linker I:N-II:N via Actinocin(9to1))
[11]
  Resistance of the drug resistant variant: 1.5 fold
